Data published in patent US20230192683A1, “FUSED RING COMPOUNDS, PREPARATION METHOD THEREFOR, PHARMACEUTICAL COMPOSITIONS AND USE THEREOF” (priority 2020, published 2023).
Marks after values point to notes of the source that are not given here.

Legend:
human SSTR4 [1] = target: T1, human SSTR4 (Homo sapiens, UniProt P31391); assay: radioligand binding assay, [125I]Somatostatin-14, CHO-K1 membranes
T1 construct: expressed in transfected cells
Procedure: (§1) Cell membranes were then filtered and washed, and protein-bound radioactivity was measured with a suitable instrument. The Ki values of corresponding targets were calculated using a Cheng-Prusoff formula.

human SSTR1 = target: T2, human SSTR1 (Homo sapiens, UniProt P30872); assay: biochemical; conditions: 25° C., 2 hours, Cheng-Prusoff; read-out: Binding Ki (nM) SSTR1
T2 construct: expressed in transfected cells; host or cells: CHO-K1 (membrane homogenates)
Procedure: as §1

human SSTR3 = target: T3, human SSTR3 (Homo sapiens, UniProt P32745); assay: biochemical; conditions: 25° C., 2 hours, Cheng-Prusoff; read-out: Binding Ki (nM) SSTR3
T3 construct: expressed in transfected cells; host or cells: CHO-K1 (membrane homogenates)
Procedure: as §1

human SSTR5 = target: T4, human SSTR5 (Homo sapiens, UniProt P35346); assay: biochemical; conditions: 25° C., 2 hours, Cheng-Prusoff; read-out: Binding Ki (nM) SSTR5
T4 construct: expressed in transfected cells; host or cells: CHO-K1 (membrane homogenates)
Procedure: as §1

human SSTR2 = target: T5, human SSTR2 (Homo sapiens, UniProt P30874); assay: biochemical; conditions: 25° C., 2 hours, Cheng-Prusoff; read-out: Binding Ki (nM) SSTR2
T5 construct: expressed in transfected cells; host or cells: CHO-K1 (membrane homogenates)
Procedure: as §1

rat CFA pain model [2] = assay: multi-dose oral pharmacodynamic study in rat CFA pain model (Von Frey PWT); assay type: in vivo
Procedure: The efficacy of Compound 1a and Compound 14 in the rat CFA pain model was evaluated using a mechanical allodynia method.
SD rats, 72 males, divided into 9 groups, were purchased from Beijing Vital River Laboratory Animal Technology Co., Ltd.
The experimental animals were adaptively reared for 3 to 7 days, and 8 of them were selected as a normal control group, and the other animals were injected with 50 µL of CFA in the center of the left hind paw for modeling. 24 hours after injection, the animals were tested for paw withdrawal threshold (PWT) basal values, and were divided into groups according to the basal values, which were solvent control group, indomethacin group, Compound 1a, 10 mpk group, Compound 1a, 30 mpk group, Compound 1a, 100 mpk group, Compound 14, 3 mpk group, Compound 14, 10 mpk group, and Compound 14, 30 mpk group, with 8 animals in each group. Subsequently, the animals were weighed and administered orally according to Table 6. All the animals were tested for paw withdrawal thresholds (PWT) using Von Frey 1, 2, and 4 hours after administration to further evaluate the efficacy of the compounds of the present invention.

rat CFA pain model [3] = assay: single-dose pharmacodynamic study in rat CFA pain model (Von Frey PWT); assay type: in vivo
Procedure: Each male SD rat (7-8 weeks old) was injected with 50 microliters of CFA in the center of the left hind paw. A PWT basal value test was conducted 24 hours after modeling, and the drugs were administered after randomization.
There were 8 animals in each group, and the animals were weighed and administered according to Table 4.
For all groups of animals, paw withdrawal thresholds (PWTs) of the animals were tested using Von Frey after 1 h and 3 h of single administration.

[4] = metabolic stability in pooled human liver microsomes; conditions: pooled human liver microsomes, pH 7.4
Procedure: Metabolic degradation of a test compound was analyzed using pooled human liver microsomes and male rat liver microsomes, respectively, at 37° C.
After pre-incubation at 37° C. for 5 min, NADPH (5 mM, 60 µL) was added to initiate a reaction. A fixed volume of the reaction mixture (30 µL) was sampled into the solution at fixed time points (0, 5, 15, 30, 60 min) to quench the reaction. After centrifugation (4000 rpm, 15 min), the supernatant (100 µL) was mixed with distilled water (100 µL) and then subjected to LC-MS/MS analysis to test the amount of the compound. A half-life was calculated using a first-order reaction kinetic equation (Ct = C0 × e^-ket, T½ = Ln2/ke).

human SSTR4 [5] = target: T1, human SSTR4; assay: cell-based human SSTR4 cAMP assay (agonist activity); conditions: SSTR4, EC50 (nM), Flp-In-CHO-SSTR4 stable pool, Forskolin-stimulated cAMP
Procedure: Purpose of test: A cell-based human SSTR4 cAMP assay was used to determine the agonistic effect of the test compound on an SSTR 4 receptor.
Cell culture and reagent preparation: cell line: Flp-In-CHO-SSTR4 stable pool; complete medium: Ham’s F-12 K + 10% FBS + 1 × penicillin-streptomycin (PS) + 600 µg/ml hygromycin B; cell seeding medium: Ham’s F-12K + 10% FBS; assay buffer: 1 × HBSS + 20 mM HEPES + 0.1%BSA + 500 uM IBMX.
The Flp-In-CHO-SSTR 4 stable pool cell line was cultured in a complete medium at 37° C., 5% CO2 until a confluency of 70% to 90%.
After TrypLE digestion, the cells were resuspended in the seeding medium and seeded in a 384-well cell culture plate (384 PE culture plate), with 7,000 cells per well, and were cultured overnight at 37° C., 5% CO2.
The cell culture plate was taken out, inverted at 200 g at room temperature for 5 s to remove the medium, then quickly filled with 15 µl of an experimental buffer to each experimental well, and centrifuged at 200 g at room temperature for 5 s.
2.5 µl of the 8x compound working solution diluted in step 3 was added to corresponding test wells, which were centrifuged at 200 g for 5 s at room temperature, and incubated at 37° C. for 10 min.
A 4 uM Forskolin working solution (8x) was prepared.
The cell plate was taken out and equilibrated to room temperature, then filled with 2.5 µl of the 8x Forskolin working solution prepared in step 6 to corresponding test wells, followed by RT at 200 g for 5 s, and left to stand at 37° C. for 30 min.
A Eu-cAMP tracer and Uliaght-anti-cAMP were freeze-thawed, the Eu-cAMP tracer was diluted 50-fold with a detection buffer, and the Uliaght-anti-cAMP was dilutd 150-fold.
10 µl of the Eu-cAMP tracer was added to all experimental wells, then 10 µl of the detection buffer was added to NC wells, and 10 µl of the Uliaght-anti-cAMP was added to the remaining experimental wells.
The reaction plate was centrifuged at 200 g for 30 s at room temperature, and after standing at 25° C. for 1 h, data was collected using Envision.
Compound EC50 was calculated using a GraphPad nonlinear fitting formula: […]
X: Compound concentration log value; Y: HTRF ratio

T1 sequence (P31391 whole entry): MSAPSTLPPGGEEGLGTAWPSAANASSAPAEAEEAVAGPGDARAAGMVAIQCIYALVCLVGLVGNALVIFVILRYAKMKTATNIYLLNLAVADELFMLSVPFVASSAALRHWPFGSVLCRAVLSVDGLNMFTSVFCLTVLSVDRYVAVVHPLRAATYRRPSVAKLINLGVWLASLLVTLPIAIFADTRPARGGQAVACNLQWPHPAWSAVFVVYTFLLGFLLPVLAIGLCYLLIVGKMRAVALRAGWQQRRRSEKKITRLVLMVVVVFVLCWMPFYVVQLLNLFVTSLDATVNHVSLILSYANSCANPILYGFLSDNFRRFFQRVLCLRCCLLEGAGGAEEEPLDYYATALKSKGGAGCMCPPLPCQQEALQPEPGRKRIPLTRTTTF
T3 sequence (P32745 whole entry): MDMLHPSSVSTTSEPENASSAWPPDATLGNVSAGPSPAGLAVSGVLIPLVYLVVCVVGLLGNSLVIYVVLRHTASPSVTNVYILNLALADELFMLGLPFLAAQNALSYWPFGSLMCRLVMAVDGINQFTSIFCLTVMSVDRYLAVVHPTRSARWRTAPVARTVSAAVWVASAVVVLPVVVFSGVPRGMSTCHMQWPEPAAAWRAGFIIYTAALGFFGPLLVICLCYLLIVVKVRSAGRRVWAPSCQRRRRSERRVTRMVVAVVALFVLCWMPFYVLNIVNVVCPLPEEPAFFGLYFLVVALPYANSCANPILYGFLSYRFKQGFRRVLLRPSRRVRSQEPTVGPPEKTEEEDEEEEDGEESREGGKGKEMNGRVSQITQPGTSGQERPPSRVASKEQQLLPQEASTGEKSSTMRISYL
T4 sequence (P35346 whole entry): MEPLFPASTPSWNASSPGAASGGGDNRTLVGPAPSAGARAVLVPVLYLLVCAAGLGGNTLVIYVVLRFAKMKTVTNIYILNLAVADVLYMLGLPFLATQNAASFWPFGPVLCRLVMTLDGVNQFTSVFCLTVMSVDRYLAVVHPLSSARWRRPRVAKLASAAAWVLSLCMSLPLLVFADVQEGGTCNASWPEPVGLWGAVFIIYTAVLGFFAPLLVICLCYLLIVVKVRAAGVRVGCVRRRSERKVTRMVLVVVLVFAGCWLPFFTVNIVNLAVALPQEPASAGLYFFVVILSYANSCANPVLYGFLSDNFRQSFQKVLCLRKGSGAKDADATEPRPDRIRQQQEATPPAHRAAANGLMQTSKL
T2 sequence (P30872 whole entry): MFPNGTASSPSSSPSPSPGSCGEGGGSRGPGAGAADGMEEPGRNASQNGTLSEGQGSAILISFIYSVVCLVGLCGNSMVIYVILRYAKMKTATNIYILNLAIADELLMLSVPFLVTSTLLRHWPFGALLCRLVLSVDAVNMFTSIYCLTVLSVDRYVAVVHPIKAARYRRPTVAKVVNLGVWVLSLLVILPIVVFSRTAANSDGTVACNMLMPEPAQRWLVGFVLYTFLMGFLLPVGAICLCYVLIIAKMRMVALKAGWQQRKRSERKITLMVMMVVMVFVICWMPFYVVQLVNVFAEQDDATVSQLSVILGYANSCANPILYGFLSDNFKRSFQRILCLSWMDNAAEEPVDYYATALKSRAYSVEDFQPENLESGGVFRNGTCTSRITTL
T5 sequence (P30874 whole entry): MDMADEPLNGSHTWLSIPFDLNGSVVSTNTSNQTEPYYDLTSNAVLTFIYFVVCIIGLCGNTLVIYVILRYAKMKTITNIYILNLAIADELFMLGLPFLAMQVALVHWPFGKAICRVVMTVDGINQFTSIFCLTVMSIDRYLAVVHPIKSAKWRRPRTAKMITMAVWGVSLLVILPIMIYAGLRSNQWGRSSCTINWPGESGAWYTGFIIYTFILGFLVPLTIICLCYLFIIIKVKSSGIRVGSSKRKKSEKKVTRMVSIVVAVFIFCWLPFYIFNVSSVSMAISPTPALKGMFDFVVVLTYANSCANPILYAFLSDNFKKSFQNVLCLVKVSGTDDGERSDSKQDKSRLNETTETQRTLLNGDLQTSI

CSc1cccc2c(C(C)(C)NC(=O)[C@H]3[C@@H]4CNC[C@@H]43)nn(C)c12 [Compound 14, (1R,5S,6R)-N-(2-(1-Methyl-7-(Methylthio)-1H-Indazol-3-yl)Prop-2-yl)-3-Azabicyclo[3.1.0]Hexane-6-Carboxamide]
Ki (human SSTR4 [1]): 0.51 nM | SSTR4 /SSTR 1 (human SSTR4 [1]; ratio of binding Ki values, selectivity): 879.5 | Ki (human SSTR1): 799 nM | Ki (human SSTR3): > 3420 nM | Ki (human SSTR5): > 5650 nM | Ki (human SSTR2): > 5310 nM | Paw withdrawal threshold (PWT(g)) (average) 0 hours (rat CFA pain model [2]; 3 mg/kg oral group): 3.118 g | Paw withdrawal threshold (PWT(g)) (average) 1 hour (rat CFA pain model [2]; 3 mg/kg oral): 3.535 g | Paw withdrawal threshold (PWT(g)) (average) 2 hours (rat CFA pain model [2]; 3 mg/kg oral): 5.369 g | Paw withdrawal threshold (PWT(g)) (average) 4 hours (rat CFA pain model [2]; 3 mg/kg oral): 5.335 g | Paw withdrawal threshold (PWT(g)) (average) 0 hours (rat CFA pain model [2]; 10 mg/kg oral group): 3.118 g | Paw withdrawal threshold (PWT(g)) (average) 1 hour (rat CFA pain model [2]; 10 mg/kg oral): 4.155 g | Paw withdrawal threshold (PWT(g)) (average) 2 hours (rat CFA pain model [2]; 10 mg/kg oral): 5.789 g | Paw withdrawal threshold (PWT(g)) (average) 4 hours (rat CFA pain model [2]; 10 mg/kg oral): 7.308 ** g | Paw withdrawal threshold (PWT(g)) (average) 0 hours (rat CFA pain model [2]; 30 mg/kg oral group): 3.079 g | Paw withdrawal threshold (PWT(g)) (average) 1 hour (rat CFA pain model [2]; 30 mg/kg oral): 4.051 g | Paw withdrawal threshold (PWT(g)) (average) 2 hours (rat CFA pain model [2]; 30 mg/kg oral): 5.683 g | Paw withdrawal threshold (PWT(g)) (average) 4 hours (rat CFA pain model [2]; 30 mg/kg oral): 8.213 **** g | inhibition of CFA-induced mechanical hyperalgesia (in words) (rat CFA pain model [2]; oral 3, 10, 30 mg/kg, 4 hours after administration): dose-dependently inhibit | onset dose (rat CFA pain model [2]; oral, inhibition of CFA-induced mechanical hyperalgesia): 10 mg/kg | Mechanical allodynia test (PWT (g), mean) Baseline (rat CFA pain model [3]; 10 mg/kg I.P. group, baseline 24 h after CFA, before administration): 3.566 g | Mechanical allodynia test (PWT (g), mean) 1 hour (rat CFA pain model [3]; 10 mg/kg I.P., 1 hour after single administration): 4.628 g | efficacy compared with Control Compound A (in words) (rat CFA pain model [3]; 10 mg/kg I.P., 3 hours after administration): significantly better than that of Control Compound A | Mechanical allodynia test (PWT (g), mean) 3 hours (rat CFA pain model [3]; 10 mg/kg I.P., 3 hours after single administration): 8.886 **** # g | inhibition of CFA-induced mechanical allodynia (in words) (rat CFA pain model [3]; 10 mg/kg I.P., single administration, FIG. 1): inhibited CFA-induced mechanical allodynia | half-life at 1 µM [4]: > 3.11 h | EC50 (human SSTR4 [5]): 0.057 nM
